{
  "source": "paper PMC8303674",
  "about": "“Discovery of a Novel Triazolopyridine Derivative as a Tankyrase Inhibitor” (International Journal of Molecular Sciences, 2021)",
  "key": {"TNKS2 (tankyrase 2)": {"molecular_target": "T1, TNKS2 (tankyrase 2) (Homo sapiens, UniProt Q9H2K2)", "T1 sequence (Q9H2K2 1-1166)": "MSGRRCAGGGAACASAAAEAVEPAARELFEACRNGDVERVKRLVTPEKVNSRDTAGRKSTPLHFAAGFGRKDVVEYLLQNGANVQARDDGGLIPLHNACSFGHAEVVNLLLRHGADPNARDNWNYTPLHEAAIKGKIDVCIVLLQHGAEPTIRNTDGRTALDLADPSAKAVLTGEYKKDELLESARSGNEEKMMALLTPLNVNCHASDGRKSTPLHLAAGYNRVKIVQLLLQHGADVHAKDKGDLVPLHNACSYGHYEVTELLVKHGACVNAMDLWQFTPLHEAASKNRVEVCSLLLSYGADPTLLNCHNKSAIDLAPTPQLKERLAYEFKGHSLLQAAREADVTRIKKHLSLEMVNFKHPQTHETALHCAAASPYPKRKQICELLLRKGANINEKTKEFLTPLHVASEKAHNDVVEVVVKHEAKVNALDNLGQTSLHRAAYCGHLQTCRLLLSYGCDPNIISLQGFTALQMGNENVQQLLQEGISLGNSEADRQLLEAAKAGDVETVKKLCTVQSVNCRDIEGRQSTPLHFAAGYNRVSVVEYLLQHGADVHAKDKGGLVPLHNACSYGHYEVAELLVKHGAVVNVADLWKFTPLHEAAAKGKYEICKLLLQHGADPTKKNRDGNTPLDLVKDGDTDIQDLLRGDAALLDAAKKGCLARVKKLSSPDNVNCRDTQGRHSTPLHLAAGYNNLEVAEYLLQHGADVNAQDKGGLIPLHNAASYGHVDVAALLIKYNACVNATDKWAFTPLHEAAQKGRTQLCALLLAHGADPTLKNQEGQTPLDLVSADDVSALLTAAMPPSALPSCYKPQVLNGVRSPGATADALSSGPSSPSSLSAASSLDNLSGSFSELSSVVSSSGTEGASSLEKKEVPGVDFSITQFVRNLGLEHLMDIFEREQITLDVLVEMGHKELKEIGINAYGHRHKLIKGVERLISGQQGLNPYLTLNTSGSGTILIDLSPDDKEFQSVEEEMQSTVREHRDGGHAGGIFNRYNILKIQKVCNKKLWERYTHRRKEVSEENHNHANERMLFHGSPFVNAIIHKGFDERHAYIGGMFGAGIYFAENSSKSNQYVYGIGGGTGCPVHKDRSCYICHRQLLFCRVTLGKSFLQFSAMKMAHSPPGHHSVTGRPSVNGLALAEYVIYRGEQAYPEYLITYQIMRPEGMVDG", "assay": "cell-free colorimetric TNKS2 activity assay (BPS Bioscience)", "type": "biochemical", "description": "cell-free colorimetric TNKS2 activity assay (BPS Bioscience) on TNKS2 (tankyrase 2) | IC50 (μM) of TI-12403 against TNKS1 and TNKS2."}, "TNKS1 (tankyrase)": {"molecular_target": "T2, TNKS1 (tankyrase) (Homo sapiens, UniProt O95271)", "T2 construct": "gene TNKS", "T2 sequence (O95271 whole entry)": "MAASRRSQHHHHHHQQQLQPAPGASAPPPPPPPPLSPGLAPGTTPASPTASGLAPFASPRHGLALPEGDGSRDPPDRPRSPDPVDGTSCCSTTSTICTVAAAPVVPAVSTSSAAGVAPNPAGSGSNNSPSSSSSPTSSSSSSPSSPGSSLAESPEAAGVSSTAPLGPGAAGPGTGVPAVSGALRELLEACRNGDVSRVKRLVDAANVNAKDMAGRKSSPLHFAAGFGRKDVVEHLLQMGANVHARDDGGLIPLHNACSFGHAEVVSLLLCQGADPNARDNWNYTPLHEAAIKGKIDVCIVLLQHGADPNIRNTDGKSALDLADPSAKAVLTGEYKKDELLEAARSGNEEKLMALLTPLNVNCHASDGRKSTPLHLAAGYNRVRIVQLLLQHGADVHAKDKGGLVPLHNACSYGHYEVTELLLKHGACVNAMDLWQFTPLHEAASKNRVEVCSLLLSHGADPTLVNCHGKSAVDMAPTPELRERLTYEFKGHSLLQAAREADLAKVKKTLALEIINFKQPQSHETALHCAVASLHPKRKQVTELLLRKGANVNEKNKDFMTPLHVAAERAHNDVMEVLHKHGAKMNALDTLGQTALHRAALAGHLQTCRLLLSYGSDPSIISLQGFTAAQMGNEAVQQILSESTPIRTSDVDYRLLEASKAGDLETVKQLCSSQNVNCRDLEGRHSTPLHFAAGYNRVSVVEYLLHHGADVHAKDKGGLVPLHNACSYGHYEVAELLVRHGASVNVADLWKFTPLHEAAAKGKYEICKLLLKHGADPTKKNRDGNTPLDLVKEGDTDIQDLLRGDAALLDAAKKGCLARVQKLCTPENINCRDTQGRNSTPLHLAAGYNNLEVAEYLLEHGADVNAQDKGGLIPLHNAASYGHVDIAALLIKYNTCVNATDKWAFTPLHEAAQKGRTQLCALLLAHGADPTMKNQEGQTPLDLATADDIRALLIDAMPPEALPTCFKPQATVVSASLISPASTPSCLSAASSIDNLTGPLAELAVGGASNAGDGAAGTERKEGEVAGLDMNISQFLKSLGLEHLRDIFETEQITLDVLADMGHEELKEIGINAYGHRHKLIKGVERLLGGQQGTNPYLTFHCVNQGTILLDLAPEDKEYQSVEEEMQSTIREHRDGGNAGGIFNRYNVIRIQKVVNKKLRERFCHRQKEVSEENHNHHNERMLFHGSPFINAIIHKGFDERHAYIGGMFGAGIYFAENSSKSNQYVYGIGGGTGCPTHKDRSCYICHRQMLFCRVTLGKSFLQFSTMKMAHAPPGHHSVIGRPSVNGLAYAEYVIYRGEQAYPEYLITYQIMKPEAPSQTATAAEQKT", "assay": "cell-free colorimetric TNKS1 activity assay (BPS Bioscience)", "type": "biochemical", "description": "cell-free colorimetric TNKS1 activity assay (BPS Bioscience) on TNKS1 (tankyrase) | IC50 (μM) of TI-12403 against TNKS1 and TNKS2."}},
  "note": "pIC50: −log10 of the molar value.",
  "data": [
    {"smiles": "N#Cc1ccccc1N1CCC(C(=O)Nc2nnc3ccccn23)CC1", "note": "[TI-12403, N-([1,2,4]triazolo[4,3-a]pyridin-3-yl)-1-(2-cyanophenyl)piperidine-4-carboxamide]", "values": [
      {"measurement": "pIC50", "setting": "TNKS2 (tankyrase 2)", "result": 7.22},
      {"measurement": "pIC50", "setting": "TNKS1 (tankyrase)", "result": 7.54}
    ]}
  ]
}
